Source: patent publication US9708368B2, “Linear peptide antibiotics” (priority 2012, dated 2017)
≈ marks a conversion by molar mass, not a printed value. Numbered stars: 1 amine (or outer) side, 2 acyl side, 3 side chain; on linkers, the order of the positions; unused ones are H or OH. Square brackets hold non-standard residues; d marks the D form. Peptide text beside a SMILES is read from it. * marks the point of attachment. ξ: configuration not given here. boroAla((+)-pinanediol) = C[C@H](N*)B1O[C@@H]2C[C@@H]3C[C@@H](C3(C)C)[C@]2(C)O1; Biphenylcarbonyl(4'-Bu) = CCCCc1ccc(-c2ccc(C(=O)*)cc2)cc1; X11 = CC[C@H](N*)B1OC2C[C@@H]3C[C@@H](C3(C)C)[C@]2(C)O1; X1 = C[C@H](N*)B1OC2C[C@@H]3C[C@@H](C3(C)C)[C@]2(C)O1; Benzoyl(4-(4-Cl-Ph)) = O=C(c1ccc(-c2ccc(Cl)cc2)cc1)*; ξ3Amino2oxobutanoyl = CC(N[*:1])C(=O)C(=O)[*:2]; Benzoyl(4-hexyl) = CCCCCCc1ccc(C(=O)*)cc1; Lys(Me3) = C[N+](C)(C)CCCC[C@H](N)C(=O)O; Pro(4R-NH2) = N[C@H]1CN[C@H](C(=O)O)C1; X15 = CCCCCCN1CCC(c2ccc(C(=O)*)cc2)CC1; X19 = O=C(CCCCC12CC3CC(CC(C3)C1)C2)*; NMeThr(3ξ) = CN[C@H](C(=O)O)C(C)O; X9 = COC(=O)CN1C[C@@H](N*)C1=O; Thr(3ξ) = CC(O)[C@H](N)C(=O)O; Tle = CC(C)(C)[C@H](N)C(=O)O; X3 = CCCCCCCCCCCCS(=O)(=O)*; X8 = C[C@H](N*)C(=O)C(N)=O; 4Amb = NCc1ccc(C(=O)O)cc1; boroAla = C[C@H](N*)B(O)O; Dab = NCC[C@H](N)C(=O)O; Abu = CC[C@H](N)C(=O)O; Dap = NC[C@H](N)C(=O)O; X14 = CCCCc1ccc(*)cc1; ξK = NCCCCC(N)C(=O)O; boroGly = OB(O)CN*; βAla = NCCC(=O)O

What was measured:
[1] = system: methicillin resistant Staphylococcus aureus (MRSA) strain USA300 (NRS384); conditions: Method B, 35° C., 22 hours
[2] = system: Escherichia coli strain MC4100 IMP-4213, which harbors an LptD mutation; conditions: Method B; E. coli MC4100 IMP-4213 (LptD mutation); 35° C., 22 hours
Description: In vitro antimicrobial activity of each compound was determined by measuring minimal inhibitor concentrations (MICs) using the broth micro-dilution technique as approved by the Clinical and Laboratory Standards Institute (CLSI). […] Bacterial inocula were prepared by scraping cells into 1 mL of testing media (cation adjusted Mueller Hinton Broth supplemented with 0.002% v/v Tween-80) and diluting to a final OD600 nm of 0.01.
Test compounds were prepared in DMSO at a concentration of 10 mg/ml. […] Bacterial inocula were added to the two fold serial dilutions of test compounds to a final density of OD OD600 nm of 0.0005 and incubated stationarily at 35° C. for 22 hours, after which the plates were examined visually.

S. aureus SPase = S. aureus SPase (Staphylococcus aureus, UniProt P0A070); assay: biochemical
E. coli SPase = E. coli SPase (Escherichia coli, UniProt P00803); assay: Biochemical SPase activity assay (fluorogenic peptide substrate), E. coli enzyme

Row | Structure (SMILES) | MIC (μg/mL) S. aureus [1] [µg/mL] | MIC (μg/mL) E. coli [2] [µg/mL] | IC50 (S. aureus SPase) [nM] | IC50 (E. coli SPase) [nM]
1 | CCCCc1ccc(NCc2ccc(C(=O)N[C@@H](CCN)C(=O)N[C@H](C(=O)N[C@@H](C)C(=O)N[C@@H](CCCCN)C(=O)N[C@@H](C)B3OC4C[C@@H]5C[C@@H](C5(C)C)[C@]4(C)O3)[C@@H](C)O)cc2)cc1 (stereo partly shown) [Compound 250] ({X14-4Amb}-[Dab]TAK-X1) | 0.35 (≈ 0.394 µM) | 0.71 (≈ 0.799 µM) | 110 | 8.4
2 | CCCCCCc1ccc(C(=O)N[C@H](CO)C(=O)N[C@H](C)C(=O)NCC(=O)N(C)[C@H](C(=O)N[C@@H](C)C(=O)N[C@@H](CC(N)=O)C(=O)NC(C)C(=O)C(=O)NC)C(C)O)cc1 (stereo partly shown) [Compound 113] ({Benzoyl(4-hexyl)}-[dS][dA]G[NMeThr(3ξ)]AN[ξ3Amino2oxobutanoyl]-NHMe) |  |  | 470 | 
3 | C[C@H](NC(=O)[C@H](CCCCN)NC(=O)[C@H](C)NC(=O)[C@@H](NC(=O)[C@H](CCN)NC(=O)CCCCC12CC3CC(CC(C3)C1)C2)[C@@H](C)O)B1OC2C[C@@H]3C[C@@H](C3(C)C)[C@]2(C)O1 (stereo partly shown) [Compound 239] (X19-[Dab]TAK-X1) | 0.71 (≈ 0.843 µM) | 2 (≈ 2.38 µM) | 670 | 17
4 | CCCCc1ccc(-c2ccc(C(=O)NC(CCCCN)C(=O)N[C@@H](CCCCN)C(=O)N[C@@H](C)C(=O)N[C@@H](CC(C)C)C(=O)N[C@@H](C)C(=O)C(N)=O)cc2)cc1 (stereo partly shown) [Compound 253] ({Biphenylcarbonyl(4'-Bu)}-[ξK]KAL-X8) | 8 (≈ 10.1 µM) | 11 (≈ 13.9 µM) | 2100 | 4800
5 | CCCCc1ccc(-c2ccc(C(=O)N[C@@H](CCCCN)C(=O)N[C@@H](Cc3c[nH]cn3)C(=O)N[C@@H](C)C(=O)N[C@@H](CC(N)=O)C(=O)N[C@@H](C)B(O)O)cc2)cc1 [Compound 136] ({Biphenylcarbonyl(4'-Bu)}-KHAN-boroAla) | 1.4 (≈ 1.8 µM) | 1 (≈ 1.29 µM) | 39 | 14
6 | CCCCc1ccc(-c2ccc(C(=O)N[C@@H](CN)C(=O)N[C@H](C(=O)N[C@@H](C)C(=O)N[C@@H](CCCCN)C(=O)N[C@@H](C)B(O)O)[C@@H](C)O)cc2)cc1 [Compound 162] ({Biphenylcarbonyl(4'-Bu)}-[Dap]TAK-boroAla) | 0.4 (≈ 0.562 µM) | 0.5 (≈ 0.703 µM) | 200 | 12
7 | CCCCc1ccc(-c2ccc(C(=O)N[C@@H](CCCCN)C(=O)N[C@H](C(=O)N[C@@H](C)C(=O)N[C@@H](CC(N)=O)C(=O)N[C@@H](C)B3O[C@@H]4C[C@@H]5C[C@@H](C5(C)C)[C@]4(C)O3)[C@@H](C)O)cc2)cc1 [Compound 129] ({Biphenylcarbonyl(4'-Bu)}-KTAN-{boroAla((+)-pinanediol)}) | 0.74 (≈ 0.847 µM) | 0.91 (≈ 1.04 µM) | 140 | 14
8 | CCCCCCCCCCCCS(=O)(=O)N[C@@H](CCCCN)C(=O)N[C@H](C(=O)N[C@@H](C)C(=O)N[C@@H](CCCCN)C(=O)N[C@@H](C)B(O)O)C(C)O (stereo partly shown) [Compound 265] (X3-K[Thr(3ξ)]AK-boroAla) | 0.13 (≈ 0.173 µM) | 4 (≈ 5.33 µM) | 17 | 120
9 | CCCCc1ccc(-c2ccc(C(=O)N[C@H]3CN[C@H](C(=O)N[C@H](C(=O)N[C@@H](C)C(=O)N[C@@H](CCCCN)C(=O)N[C@@H](C)B4OC5C[C@@H]6C[C@@H](C6(C)C)[C@]5(C)O4)[C@@H](C)O)C3)cc2)cc1 (stereo partly shown) [Compound 269] | 0.5 (≈ 0.573 µM) | 8 (≈ 9.18 µM) | 340 | 1800
10 | CCCCc1ccc(-c2ccc(C(=O)N[C@@H](CCCCN)C(=O)N3C[C@H](N)C[C@H]3C(=O)N[C@@H](C)C(=O)N[C@@H](CC(C)C)C(=O)N[C@@H](C)B(O)O)cc2)cc1 [Compound 152] ({Biphenylcarbonyl(4'-Bu)}-K[Pro(4R-NH2)]AL-boroAla) | 0.4 (≈ 0.534 µM) | 0.5 (≈ 0.667 µM) | 350 | 25
11 | CC(C)C[C@H](NC(=O)[C@H](C)NC(=O)[C@H](CCN)NC(=O)[C@H](CCN)NC(=O)c1ccc(-c2ccc(Cl)cc2)cc1)C(=O)N[C@@H](C)B(O)O [Compound 177] ({Benzoyl(4-(4-Cl-Ph))}-[Dab][Dab]AL-boroAla) | 2 (≈ 2.91 µM) | 2 (≈ 2.91 µM) | 640 | 70
12 | CCCCc1ccc(-c2ccc(C(=O)N[C@H](CCCCN)C(=O)N[C@H](C(=O)N[C@@H](C)C(=O)N[C@@H](CCCCN)C(=O)N[C@@H](C)B(O)O)C(C)O)cc2)cc1 (stereo partly shown) [Compound 160] ({Biphenylcarbonyl(4'-Bu)}-[dK][Thr(3ξ)]AK-boroAla) | 2.8 (≈ 3.71 µM) | 64 (≈ 84.9 µM) | 900 | 2100
13 | CCCCc1ccc(-c2ccc(C(=O)NCCCC[C@H](NC(=O)[C@H](CCN)NC(C)=O)C(=O)N[C@@H](C)C(=O)N[C@@H](CCCCN)C(=O)N[C@@H](C)B3OC4C[C@@H]5C[C@@H](C5(C)C)[C@]4(C)O3)cc2)cc1 (stereo partly shown) [Compound 279] (Ac-[Dab]K(Biphenylcarbonyl(4'-Bu))AK-X1) | 11 (≈ 11.8 µM) | 8 (≈ 8.61 µM) | 7400 | 530
14 | CC(C)C[C@H](NC(=O)[C@H](C)NC(=O)[C@H](CCCCN)NC(=O)[C@H](CCCCN)NC(=O)c1ccc(-c2ccc(Cl)cc2)cc1)C(=O)N[C@@H](C)B(O)O [Compound 155] ({Benzoyl(4-(4-Cl-Ph))}-KKAL-boroAla) |  |  | 250 | 39
15 | CCCCc1ccc(-c2ccc(C(=O)NCCC(=O)N[C@@H](CCCCN)C(=O)N[C@H](C(=O)N[C@@H](CC)C(=O)N[C@@H](CC(N)=O)C(=O)N[C@@H](CC)B3OC4C[C@@H]5C[C@@H](C5(C)C)[C@]4(C)O3)[C@@H](C)O)cc2)cc1 (stereo partly shown) [Compound 205] ({Biphenylcarbonyl(4'-Bu)-βAla}-KT[Abu]N-X11) | 2 (≈ 2.06 µM) | 32 (≈ 32.9 µM) | 20 | 210
16 | CCCCCCN1CCC(c2ccc(C(=O)N[C@@H](CCN)C(=O)N[C@H](C(=O)N[C@@H](C)C(=O)N[C@@H](CCCCN)C(=O)N[C@@H](C)B3O[C@@H]4C[C@@H]5C[C@@H](C5(C)C)[C@]4(C)O3)[C@@H](C)O)cc2)CC1 [Compound 246] (X15-[Dab]TAK-{boroAla((+)-pinanediol)}) | 23 (≈ 25.7 µM) | 64 (≈ 71.5 µM) | 290 | 55
17 | C[C@H](NC(=O)[C@H](CCCCN)NC(=O)[C@H](C)NC(=O)[C@@H](NC(=O)[C@H](CN)NC(=O)c1ccc(-c2ccc(Cl)cc2)cc1)[C@@H](C)O)B(O)O [Compound 175] ({Benzoyl(4-(4-Cl-Ph))}-[Dap]TAK-boroAla) | 1.2 (≈ 1.74 µM) | 2 (≈ 2.9 µM) | 110 | 5.5
18 | CCCCc1ccc(-c2ccc(C(=O)N[C@@H](CCCC[N+](C)(C)C)C(=O)N[C@H](C(=O)N[C@@H](C)C(=O)N[C@@H](CCCCN)C(=O)N[C@@H](C)B(O)O)[C@@H](C)O)cc2)cc1 [Compound 159] ({Biphenylcarbonyl(4'-Bu)}-[Lys(Me3)]TAK-boroAla) | 1 | 16 | 86 | 240
19 | CCCCc1ccc(-c2ccc(CN[C@@H](CCN)C(=O)N[C@H](C(=O)N[C@@H](C)C(=O)N[C@@H](CCCCN)C(=O)N[C@@H](C)B(O)O)[C@@H](C)O)cc2)cc1 [Compound 267] |  |  | 33 | 11
20 | CCCCc1ccc(-c2ccc(C(=O)NCCC(=O)N[C@@H](CCCCN)C(=O)N[C@H](C(=O)N[C@@H](C)C(=O)N[C@H](C(=O)N[C@@H](C)B3OC4C[C@@H]5C[C@@H](C5(C)C)[C@]4(C)O3)C(C)(C)C)[C@@H](C)O)cc2)cc1 (stereo partly shown) [Compound 211] ({Biphenylcarbonyl(4'-Bu)-βAla}-KTA[Tle]-X1) | 0.71 (≈ 0.752 µM) | 32 (≈ 33.9 µM) | 36 | 
21 | CCCCCCc1ccc(C(=O)N[C@H](CO)C(=O)N[C@H](C)C(=O)NCC(=O)N(C)[C@H](C(=O)N[C@@H](C)C(=O)N[C@@H](CC(C)C)C(=O)NCB(O)O)C(C)O)cc1 (stereo partly shown) [Compound 125] ({Benzoyl(4-hexyl)}-[dS][dA]G[NMeThr(3ξ)]AL-boroGly) |  |  | 55 | 730
22 | CCCCCCc1ccc(C(=O)N[C@H](CO)C(=O)N[C@H](C)C(=O)NCC(=O)N(C)[C@H](C(=O)N[C@@H](C)C(=O)N[C@@H](CC(C)C)C(=O)NC(C)C(=O)C(=O)NC)C(C)O)cc1 (stereo partly shown) [Compound 114] ({Benzoyl(4-hexyl)}-[dS][dA]G[NMeThr(3ξ)]AL[ξ3Amino2oxobutanoyl]-NHMe) |  |  | 390 | 
23 | CCCCc1ccc(-c2ccc(C(=O)N[C@@H](CCN)C(=O)N[C@H](C(=O)N[C@@H](C)C(=O)N[C@@H](CCCCN)C(=O)N[C@@H](C)B(O)O)[C@@H](C)O)cc2)cc1 [Compound 267] ({Biphenylcarbonyl(4'-Bu)}-[Dab]TAK-boroAla) | 0.13 (≈ 0.179 µM) |  |  | 
24 | CCCCc1ccc(-c2ccc(C(=O)N[C@@H](CCCCN)C(=O)N3CCC[C@H]3C(=O)N[C@@H](C)C(=O)N[C@@H](CCCCN)C(=O)N[C@@H]3CN(CC(=O)OC)C3=O)cc2)cc1 [Compound 258] ({Biphenylcarbonyl(4'-Bu)}-KPAK-X9) | >64 | 23 (≈ 28.1 µM) | 50000 | 
